Columns and labels:
pSTAT6 in Ramos cells = assay: Reduction of pSTAT6 in Ramos cells (Western blot); assay type: cell-based; details: Homo sapiens; Ramos cells (type I receptor complex); read-out: EC50 of pSTAT6 inhibition
Experimental: Ramos cells were used as cell-based model of IL-4 inhibition. Ramos cells express type I receptor complex (IL-4Rα and γc)—they were used to confirm that the lead compound D9 (compound 1 in Table 3) inhibits IL-4 signaling in this context as well.
The assay was run as described in Example 2 and 3 for THP-1 cells. Blotting was conducted for pSTAT6 and STAT6 and the percent of pSTAT6 calculated based on total STAT6. All conditions were run in triplicate. The results are depicted in FIGS. 22-23.

IL-4 = target: T1, IL-4 (Homo sapiens, UniProt P05112); assay: HEK-Blue IL-4/IL-13 cell-based reporter (SEAP) IL-4 inhibition assay; details: Example 2, quadruplicate; read-out: EC50 of IL-4 inhibition in HEK-Blue IL-4/IL-13 cells
T1 construct: purchased Acros Biosystems IL4-H4218; host or cells: HEK-293
T1 sequence (P05112 25-153): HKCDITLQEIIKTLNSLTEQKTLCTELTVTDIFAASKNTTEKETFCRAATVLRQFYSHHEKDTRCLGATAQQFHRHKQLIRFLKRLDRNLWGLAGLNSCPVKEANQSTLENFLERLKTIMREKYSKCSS
Experimental: HEK-Blue IL-4/IL-13 cells were purchased from Invivogen and maintained in DMEM complete with 10% fetal bovine serum, 10 μg/ml of blasticidin and 100 μg/ml of Zeocin, 100 μg/mL Normocin, and 100 U/mL-100 μg/mL Pen-Strep. Cells used for assays were between passages 12 and 18. […] HEK-Blue IL-4/IL-13 cells were trypsinized, spun down, and resuspended in DMEM with 10% heat-inactivated FBS, and 100 U/mL-100 μg/mL Pen-Strep at a concentration of 3.125E5/mL. 160 μL of the cell suspension was added to each well of a 96 well plate, avoiding the edges of the plate and equilibrated in an incubator for 1 hour. After 2 hours, 40 μL of the small molecule/IL-4 solution was added to each well. Each measurement performed in quadruplicate. Cells were incubated for 20 hours at 37° C./5% CO2. Quanti-Blue was prepared according to manufacture and 160 μL added to each well of a 96 well plate, avoiding edges. 40 μL of cell supernatant was added to each well and then incubated for 3 hours at 37° C. The optical density was then read at 650 nm with a Molecular Devices SpectraMax M5 Microplate Reader. Data was plotted and analyzed in GraphPad Prism 8.
HEK-Blue IL-4/IL-13 cells were purchased from Invivogen and maintained in DMEM complete with 10% fetal bovine serum, 10 μg/ml of blasticidin and 100 μg/ml of Zeocin, 100 μg/mL Normocin, and 100 U/mL-100 μg/mL Pen-Strep. Cells used for assays were between passages 12 and 18. Prior to screening small molecules, the SEAP production induced by IL-4 alone was tested in the cells (FIG. 13) and determined to be 0.3 ng/mL. The EC25 for the IL-4 induced SEAP production (0.1 ng/mL final well concentration) was chosen for running small molecule inhibition assays.
For screening small molecules, 25 µL of each molecule (FIG. 9) in DMEM with 4% DMSO was added to 25 μL of 1 ng/ml IL-4 in DMEM and incubated for 2 hours at 37° C. HEK-Blue IL-4/IL-13 cells were trypsinized, spun down, and resuspended in DMEM with 10% heat-inactivated FBS, and 100 U/mL-100 μg/mL Pen-Strep at a concentration of 3.125E5/mL. 160 μL of the cell suspension was added to each well of a 96 well plate, avoiding the edges of the plate and equilibrated in an incubator for 1 hour. After 2 hours, 40 μL of the small molecule/IL-4 solution was added to each well. Each measurement was performed in […]. Cells were incubated for 20 hours at 37° C./5% CO2. Quanti-Blue was prepared according to manufacture and 160 μL added to each well of a 96 well plate, avoiding edges. 40 μL of cell supernatant was added to each well and then incubated for 3 hours at 37° C. The optical density was then read at 650 nm with a Molecular Devices SpectraMax M5 Microplate Reader. Data was plotted and analyzed in GraphPad Prism 8.
HEK-Blue IL-4/IL-13 cells used to screen analogs of compound 52 from ACS Chemical Biology paper (also referred to herein as D9). Assay was run as described in Examples 2 and 3. All compounds were screened at 10 μM, 1 μM, and 250 nM in quadruplicate. The results are depicted in FIGS. 17-21.

[1] = tested on: STAT-6 phosphorylation in THP-1 cells; assay: THP-1 STAT-6/pSTAT-6 Western blot assay; assay type: cell-based; details: Homo sapiens, THP-1, THP-1 cells, IL-4 preincubated with compound, read-out: EC50 of reduction in pSTAT-6 levels
Experimental: THP-1 cells were maintained in RMPI-1640 with 10% heat-inactivated fetal bovine serum and 50 μM beta-mercaptoethanol. Cells used for assays were between passages 6 and 10. 10 ng/ml IL-4 was preincubated with experimental sample (vehicle, D9 etc) for 2 hours at 37° C. Solutions were then added to 2E6 THP-1 cells in 1 mL. THP-1 cells were incubated for 30 minutes in incubator at 37° C. 5% CO2. Cells were then spun down, lysed with 200 μL ice-cold RIPA buffer complete with phosphatase and protease inhibitors. Cell lysate was incubated on ice for 30 minutes and then stored at −20° C. until western blot analysis. Undiluted cell-lysate was run SDS-PAGE followed by transfer to membrane using Biorad equipment. Membranes were incubated with 1:1000 primary antibody overnight at 4° ° C. Membranes then incubated with 1:50,000 dilution secondary for 1 hour at RT. […] The brightness/contrast was adjusted in […] and the area under the curve of each lane was quantified.
THP-1 cells were maintained in RMPI-1640 with 10% heat-inactivated fetal bovine serum and 50 μM beta-mercaptoethanol. […] The brightness/contrast was adjusted in FIJI (FIGS. 15 and 16) and the area under the curve of each lane was quantified. The ratio of phosphorylated STAT6 to STAT6 was calculated and normalized to the amount of total STAT6. The data was plotted and analyzed using Graphpad Prism 8.

N#Cc1c(-c2ccc(O)c(O)c2)cc(-c2ccc(F)cc2)nc1N [Compound D9]
EC50 (pSTAT6 in Ramos cells): 6.12 µM
EC50 (IL-4): 5.73 µM
EC50 [1]: 3.1 µM

— patent US12043621B2, “Small molecule inhibitors of Interleukin-4” (Trustees of Boston University, priority 2020, dated 2024)
